Consider two compounds from US20240207258A1, “HETEROCYCLIC PDK1 INHIBITORS FOR USE TO TREAT CANCER” (Viracta Therapeutics, Inc., priority 2015, published 2024).

Molecules are shown by their SMILES.

The EC50 is the midpoint of the concentration-response curve. Read a low EC50 as a more potent agent.

One assay has as its system Molm-13. The assay can be described thus: MTS cell proliferation assay, Molm-13. The conditions noted are these: Homo sapiens; Molm-13, 72 hr. It is filed as cell-based. The method, then: (§1) Cell proliferation was measured using the CellTiter 96 Aqueous Non-Radioactive Cell Proliferation Assay (Promega). The CellTiter 96® AQueous Assay is composed of solutions of a tetrazolium compound [3-(4,5-dimethylthiazol-2-yl)-5-(3-carboxymethoxyphenyl)-2-(4-sulfophenyl)-2H-tetrazolium, inner salt; MTS] and an electron coupling reagent (phenazine methosulfate) PMS. MTS is bioreduced by cells into a formazan product that is soluble in tissue culture medium. The absorbance of the formazan product at 490 nm can be measured directly from assay plates without additional processing. The quantity of formazan product as measured by the amount of 490 nm absorbance is directly proportional to the number of living cells in culture. Cells were seeded into 96-well or 384-well clear plates in a volume of 200 μL (96-well) or 50 μL (384-well) at optimized densities ranging from 1,000 to 40,000 cells per well for 96-well plates or 1,200 to 25,000 cells per well for 384-well plates depending on cell-line. After 4-6 hr recovery, serially diluted compounds in DMSO were added to the cells using (0.1% v/v final DMSO concentration). Cells were then grown at 37° C. in a humidified incubator with 5% CO2 for 72 hr. A 20:1 [3-(4,5-dimethylthiazol-2-yl)-5-(3-carboxymethoxyphenyl)-2-(4-sulfophenyl)-2H-tetrazolium](MTS):phenazine methosulfate (PMS) solution in DPBS was made immediately before use, added to each well, and cells were incubated for 1.5 hr at 37° C. The absorbance at 490 nm was then measured using a platereader. Absorbance values were normalized as percent of control (cells incubated in the presence of 0.1% v/v DMSO). Sigmoidal dose-response curves were plotted using log(inhibitor) vs. response—Variable slope (four parameters) model with a top value constrained to 100% (GraphPad Prism version 6.00 for Windows, GraphPad Software, La Jolla California USA). […] Curves for compounds that reached a plateau were matched exactly to the measurement points. […] To determine potential of compounds of the invention to affect viability of hematological cancers, cell lines representing various tumor types were selected and tested. Human cell lines tested were: MOLM-13 (acute myeloid leukemia (AML)), MV4-11 (AML), U-2932 (ABC-diffuse large B cell lymphoma), U-937 (histiocytic lymphoma), U-266 (multiple myeloma), RPMI-8226 (multiple myeloma), CMK (megakaryoblastic cell line), SU-DHL-4 (GCB-diffuse large B cell lymphoma), KG1 (AML), Mec-1 (chronic B-cell leukemia), MOLM-16 (AML), Jeko (B-cell lymphoma), WSU-DLCL2 (B-cell lymphoma), JJN3 (plasma cell leukemia), SU-DHL-6 (GCB-diffuse large B cell lymphoma), and Z-138 (mantle cell lymphoma). In addition, two murine cell lines were tested: A20 […].
A general note: Tetrazolium dyes change colour on reduction, which living cells bring about.

The next assay has as its system U-937. As to the kind of experiment: MTS cell proliferation assay, U-937. The conditions noted are these: Homo sapiens; U-937, 72 hr. It is filed as cell-based. The protocol:
(§2) Cell proliferation was measured using the CellTiter 96 Aqueous Non-Radioactive Cell Proliferation Assay (Promega). The CellTiter 96® AQueous Assay is composed of solutions of a tetrazolium compound [3-(4,5-dimethylthiazol-2-yl)-5-(3-carboxymethoxyphenyl)-2-(4-sulfophenyl)-2H-tetrazolium, inner salt; MTS] and an electron coupling reagent (phenazine methosulfate) PMS. MTS is bioreduced by cells into a formazan product that is soluble in tissue culture medium. The absorbance of the formazan product at 490 nm can be measured directly from assay plates without additional processing. The quantity of formazan product as measured by the amount of 490 nm absorbance is directly proportional to the number of living cells in culture. Cells were seeded into 96-well or 384-well clear plates in a volume of 200 μL (96-well) or 50 μL (384-well) at optimized densities ranging from 1,000 to 40,000 cells per well for 96-well plates or 1,200 to 25,000 cells per well for 384-well plates depending on cell-line. After 4-6 hr recovery, serially diluted compounds in DMSO were added to the cells using (0.1% v/v final DMSO concentration). Cells were then grown at 37° C. in a humidified incubator with 5% CO2 for 72 hr. A 20:1 [3-(4,5-dimethylthiazol-2-yl)-5-(3-carboxymethoxyphenyl)-2-(4-sulfophenyl)-2H-tetrazolium](MTS):phenazine methosulfate (PMS) solution in DPBS was made immediately before use, added to each well, and cells were incubated for 1.5 hr at 37° C. The absorbance at 490 nm was then measured using a platereader. Absorbance values were normalized as percent of control (cells incubated in the presence of 0.1% v/v DMSO). Sigmoidal dose-response curves were plotted using log(inhibitor) vs. response—Variable slope (four parameters) model with a top value constrained to 100% (GraphPad Prism version 6.00 for Windows, GraphPad Software, La Jolla California USA). […] Curves for compounds that reached a plateau were matched exactly to the measurement points. […]

Another assay has as its system U-266. The assay can be described thus: MTS cell proliferation assay, U-266. It is filed as cell-based. The conditions noted are these: Homo sapiens; U-266, 72 hr. The method, then: as §2
For another assay, the system named is SU-DHL-4. The assay can be described thus: MTS cell proliferation assay, SU-DHL-4. Format: cell-based. The conditions noted are these: Homo sapiens; SU-DHL-4, 72 hr. The method, then:
as §2

For the next assay, the system named is MOLM-16. As to the kind of experiment: MTS cell proliferation assay, MOLM-16. It is filed as cell-based. The following applies: Homo sapiens, MOLM16; MOLM-16, 72 hr. The protocol: as §2
In a further assay the test system is SU-DHL-6. As to the kind of experiment: MTS cell proliferation assay, SU-DHL-6. The following applies: Homo sapiens; SU-DHL-6, 72 hr. Format: cell-based. The method, then:
as §2

The test system of a further assay is Z-138. The assay can be described thus: MTS cell proliferation assay, Z-138. Format: cell-based. The following applies: Homo sapiens; Z-138, 72 hr. The method, then:
as §2

The subject of another assay is A20. The assay can be described thus: MTS cell proliferation assay, A20. Format: cell-based, murine. The following applies: Mus musculus; A20, 72 hr. The method, then:
as §1

In assay [1] the target is T1, Full-length phosphorylated PDK1 (Homo sapiens, UniProt O15530).
T1 sequence (O15530 1-556): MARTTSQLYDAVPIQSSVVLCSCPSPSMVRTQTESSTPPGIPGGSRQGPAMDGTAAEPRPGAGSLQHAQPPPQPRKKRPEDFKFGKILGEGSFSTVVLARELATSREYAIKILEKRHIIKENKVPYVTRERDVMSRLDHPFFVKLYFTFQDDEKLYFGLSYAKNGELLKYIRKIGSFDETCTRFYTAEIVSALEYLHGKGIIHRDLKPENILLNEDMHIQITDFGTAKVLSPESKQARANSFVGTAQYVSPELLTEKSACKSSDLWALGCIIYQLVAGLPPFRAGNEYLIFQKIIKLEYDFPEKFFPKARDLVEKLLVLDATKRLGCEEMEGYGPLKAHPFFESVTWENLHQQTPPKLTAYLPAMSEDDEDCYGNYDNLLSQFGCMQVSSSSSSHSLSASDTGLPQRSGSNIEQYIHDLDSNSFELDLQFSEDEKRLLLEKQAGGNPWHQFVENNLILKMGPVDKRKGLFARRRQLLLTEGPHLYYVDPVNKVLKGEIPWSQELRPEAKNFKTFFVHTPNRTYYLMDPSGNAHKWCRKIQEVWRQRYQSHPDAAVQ
The assay can be described thus: FRET-based PIF-tide binding assay. The following applies: 10 nM compound where stated, FIG. 13D.

The next assay deals with P-PDK1. The assay can be described thus: Western blot, PDK1 phosphorylation in A20 cells. It is filed as cell-based, murine. The method, then: For phosphoprotein analyses, cells were seeded into 10 cm petri dishes (10×10^6 cells/dish) in media supplemented with 10% FBS and penicillin/streptomycin. After cells recovered for 1 hr at 37° C., compounds were added in DMSO (0.1% final) and incubated for 4 or 24 hr at 37° C. Cells were then harvested by centrifugation and washed with cold PBS. Cell pellets were resuspended in cell extraction buffer (Invitrogen) supplemented with 2×Halt™ protease and phosphatase inhibitor cocktail (Thermo Scientific), 2 mM sodium orthovanadate, 10 mM EDTA and 4 mM PMSF. Samples were lysed by sonication and incubated on ice for 30 min. Cell debris was removed by centrifugation and protein concentrations were determined using the BCA Protein Assay Kit (Pierce). The clarified lysate was diluted in LDS sample buffer with reducing agent (Life Technologies). […] Gels were run at 110 V and proteins were transferred to a PVDF membrane. Membranes were blocked in TBS blocking buffer (Li-Cor Biosciences) for 1 hr. Primary antibodies (Cell Signaling, Sant Cruz Biotechnology) were added (1:1,000 dilution) in blocking buffer with 0.1% Tween-20 and 1:20,000 dilution of β-actin antibody and incubated for 14 hr at 4° C. […] Bands were quantitated using ImageJ.
For orientation: In western blotting, separated proteins are transferred to a membrane and probed.

In the case of `C[C@H](NC(=O)c1nc(C#N)cnc1NCc1ccc(-c2cnc3[nH]nc(N)c3n2)cc1)c1ccc(F)c(F)c1` [Compound 1, 3-[4-(3-Amino-1H-pyrazolo[3,4-b]pyrazin-5-yl)-benzylamino]-6-cyano-pyrazine-2-carboxylic acid [1-(3,4-difluoro-phenyl)-ethyl]-amide], the EC50 came out at 6 nM with Molm-13; 123 nM in the assay with U-937; 226 nM in the assay with U-266; 313 nM in the assay on SU-DHL-4; 248 nM in the assay on MOLM-16; 572 nM in the assay with SU-DHL-6. Also, the results for the EC50 in the assay with Z-138 and with A20 were 718 nM and 156 nM, respectively. For the same compound, the “FRET between PDK1 and PIF-tide” value in [1] is “near complete inhibition”.

`CNc1n[nH]c2ncc(-c3ccc(CNc4ncc(C#N)nc4C(=O)N[C@@H](C)c4ccc(F)c(F)c4)cc3)cc12` [Compound 2, 6-Cyano-3-[4-(3-methylamino-1H-pyrazolo[3,4-b]pyridin-5-yl)-benzylamino]-pyrazine-2-carboxylic acid [1-(3,4-difluoro-phenyl)-ethyl]-amide]: the EC50 was 3 nM with Molm-13; 74 nM with U-937; 130 nM in the assay on U-266; 186 nM in the assay with SU-DHL-4; 227 nM in the assay on MOLM-16; 476 nM in the assay on SU-DHL-6. The EC50 in the assay with Z-138 came out at 684 nM; in the assay with A20, 114 nM. The compound also came in with a P-PDK inhibition plateau in the assay on P-PDK1 of 70%. Moreover, in assay [1], the “FRET between PDK1 and PIF-tide” value is given as “near complete inhibition”.
